In ChEMBL document CHEMBL3621100, “Discovery of Novel Class I Histone Deacetylase Inhibitors with Promising in Vitro and in Vivo Antitumor Activities” (J Med Chem, 2015) one finds IC50 and GI50 data, which are given here for five compounds.

Broadly, the IC50 is the midpoint of a concentration-inhibition curve. In general, GI50 refers to the concentration at which growth is held to half of that of the control. Lower therefore signals more potent growth inhibition.

The target of data set [1] is T1, Protein deacetylase HDAC6 (Homo sapiens, UniProt Q9UBN7).
T1 sequence (Q9UBN7 whole entry): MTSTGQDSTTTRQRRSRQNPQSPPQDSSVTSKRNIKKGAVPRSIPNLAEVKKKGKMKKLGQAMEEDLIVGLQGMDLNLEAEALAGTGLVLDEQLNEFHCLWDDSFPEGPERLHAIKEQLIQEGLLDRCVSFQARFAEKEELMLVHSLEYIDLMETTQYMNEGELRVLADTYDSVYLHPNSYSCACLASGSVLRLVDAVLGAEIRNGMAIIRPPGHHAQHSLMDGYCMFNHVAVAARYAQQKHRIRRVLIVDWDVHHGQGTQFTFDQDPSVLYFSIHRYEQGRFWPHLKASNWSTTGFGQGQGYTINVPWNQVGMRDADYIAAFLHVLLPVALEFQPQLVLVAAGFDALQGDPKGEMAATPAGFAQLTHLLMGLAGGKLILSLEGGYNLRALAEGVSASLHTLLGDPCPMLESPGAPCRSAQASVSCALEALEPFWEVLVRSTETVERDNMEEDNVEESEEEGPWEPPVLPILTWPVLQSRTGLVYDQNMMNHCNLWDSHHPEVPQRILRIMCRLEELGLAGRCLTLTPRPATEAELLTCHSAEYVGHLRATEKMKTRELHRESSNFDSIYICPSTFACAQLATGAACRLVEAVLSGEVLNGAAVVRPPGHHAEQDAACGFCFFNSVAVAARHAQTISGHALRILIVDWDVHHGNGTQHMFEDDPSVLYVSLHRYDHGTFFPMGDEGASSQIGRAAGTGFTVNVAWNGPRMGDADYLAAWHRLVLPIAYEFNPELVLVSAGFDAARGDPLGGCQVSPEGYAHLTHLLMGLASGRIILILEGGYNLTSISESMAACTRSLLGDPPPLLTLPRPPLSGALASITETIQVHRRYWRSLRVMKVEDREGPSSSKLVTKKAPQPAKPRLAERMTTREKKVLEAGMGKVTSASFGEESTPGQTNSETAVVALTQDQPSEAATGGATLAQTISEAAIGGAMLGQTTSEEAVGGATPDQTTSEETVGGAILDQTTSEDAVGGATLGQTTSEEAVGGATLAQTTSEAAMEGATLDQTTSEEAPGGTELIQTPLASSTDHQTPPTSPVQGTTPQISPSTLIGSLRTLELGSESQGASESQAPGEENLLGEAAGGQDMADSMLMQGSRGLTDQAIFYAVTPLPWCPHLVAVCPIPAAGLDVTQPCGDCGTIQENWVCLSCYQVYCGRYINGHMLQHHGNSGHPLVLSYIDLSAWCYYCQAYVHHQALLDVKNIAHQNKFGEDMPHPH
Briefly: Inhibition of recombinant human HDAC6 after 60 mins by fluorescence assay.

The next data set has as its target Histone deacetylase 1 (Homo sapiens, UniProt Q13547). The experiment in a line: Inhibition of recombinant human HDAC1 after 60 mins by fluorescence assay.
A further data set concerns the target Histone deacetylase 2 (Homo sapiens, UniProt Q92769). Briefly: Inhibition of recombinant human HDAC2 after 60 mins by fluorescence assay.
Data set [2] can be described thus: Antiproliferative activity against human MOLT4 cells after 72 hrs by CCK8 assay. In kind it is functional, MOLT-4. The note with it: Homo sapiens, MOLT-4, 72 h. (Formazan colour is commonly taken as a measure of viable cells.)
The target in data set [3] is T2, Polyamine deacetylase HDAC10 (Homo sapiens, UniProt Q969S8).
T2 sequence (Q969S8 whole entry): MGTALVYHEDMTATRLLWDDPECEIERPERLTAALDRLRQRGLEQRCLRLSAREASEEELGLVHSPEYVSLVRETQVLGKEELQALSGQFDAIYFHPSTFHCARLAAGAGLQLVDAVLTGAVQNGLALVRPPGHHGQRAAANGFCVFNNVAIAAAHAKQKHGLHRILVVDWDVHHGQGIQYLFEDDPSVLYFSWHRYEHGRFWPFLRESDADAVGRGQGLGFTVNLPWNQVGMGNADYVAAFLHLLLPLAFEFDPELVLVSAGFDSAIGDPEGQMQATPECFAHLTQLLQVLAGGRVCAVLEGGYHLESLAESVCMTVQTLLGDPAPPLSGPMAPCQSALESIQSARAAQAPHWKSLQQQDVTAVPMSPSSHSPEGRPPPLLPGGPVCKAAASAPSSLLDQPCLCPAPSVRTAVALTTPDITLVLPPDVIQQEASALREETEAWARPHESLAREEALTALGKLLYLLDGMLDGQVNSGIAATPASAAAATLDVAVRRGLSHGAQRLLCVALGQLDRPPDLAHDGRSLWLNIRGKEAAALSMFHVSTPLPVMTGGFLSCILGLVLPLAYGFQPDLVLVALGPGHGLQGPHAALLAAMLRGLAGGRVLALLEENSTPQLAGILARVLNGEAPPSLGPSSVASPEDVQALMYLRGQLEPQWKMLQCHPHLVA
Briefly: Inhibition of recombinant human HDAC10 after 60 mins by fluorescence assay.

The next data set has as its target T3, Histone deacetylase 7 (Homo sapiens, UniProt Q8WUI4).
T3 sequence (Q8WUI4 whole entry): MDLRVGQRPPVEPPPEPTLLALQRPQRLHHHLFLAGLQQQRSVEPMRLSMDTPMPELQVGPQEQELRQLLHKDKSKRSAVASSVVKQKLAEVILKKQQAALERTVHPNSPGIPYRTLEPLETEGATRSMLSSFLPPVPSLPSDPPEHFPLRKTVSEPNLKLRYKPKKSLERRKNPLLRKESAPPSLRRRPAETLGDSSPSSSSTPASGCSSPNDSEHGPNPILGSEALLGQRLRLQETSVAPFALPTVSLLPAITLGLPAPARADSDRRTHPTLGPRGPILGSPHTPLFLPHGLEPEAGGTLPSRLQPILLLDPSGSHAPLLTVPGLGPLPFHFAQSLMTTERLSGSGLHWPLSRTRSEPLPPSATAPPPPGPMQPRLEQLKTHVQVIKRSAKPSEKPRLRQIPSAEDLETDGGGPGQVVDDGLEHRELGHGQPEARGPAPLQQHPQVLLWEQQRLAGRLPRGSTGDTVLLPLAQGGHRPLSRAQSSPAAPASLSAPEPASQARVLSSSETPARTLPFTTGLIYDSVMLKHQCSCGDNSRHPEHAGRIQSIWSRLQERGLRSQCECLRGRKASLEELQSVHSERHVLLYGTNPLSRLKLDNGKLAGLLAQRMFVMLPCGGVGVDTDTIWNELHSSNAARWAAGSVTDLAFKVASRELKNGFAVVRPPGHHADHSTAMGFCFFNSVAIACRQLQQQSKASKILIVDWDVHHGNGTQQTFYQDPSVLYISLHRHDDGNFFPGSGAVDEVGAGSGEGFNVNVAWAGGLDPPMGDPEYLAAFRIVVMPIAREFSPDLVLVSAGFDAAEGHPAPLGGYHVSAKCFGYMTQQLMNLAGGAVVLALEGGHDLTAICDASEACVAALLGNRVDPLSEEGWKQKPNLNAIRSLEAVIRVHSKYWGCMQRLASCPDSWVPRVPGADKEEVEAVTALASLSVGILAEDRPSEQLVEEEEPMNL
Briefly: Inhibition of recombinant human HDAC7 after 60 mins by fluorescence assay.

Data set [4] is described as follows: Antiproliferative activity against human WI38 cells after 72 hrs by CCK8 assay. In kind it is cell-based, WI-38.

SMILES strings stand for the structures.

Histone deacetylase 2, sequence (Q92769 whole entry): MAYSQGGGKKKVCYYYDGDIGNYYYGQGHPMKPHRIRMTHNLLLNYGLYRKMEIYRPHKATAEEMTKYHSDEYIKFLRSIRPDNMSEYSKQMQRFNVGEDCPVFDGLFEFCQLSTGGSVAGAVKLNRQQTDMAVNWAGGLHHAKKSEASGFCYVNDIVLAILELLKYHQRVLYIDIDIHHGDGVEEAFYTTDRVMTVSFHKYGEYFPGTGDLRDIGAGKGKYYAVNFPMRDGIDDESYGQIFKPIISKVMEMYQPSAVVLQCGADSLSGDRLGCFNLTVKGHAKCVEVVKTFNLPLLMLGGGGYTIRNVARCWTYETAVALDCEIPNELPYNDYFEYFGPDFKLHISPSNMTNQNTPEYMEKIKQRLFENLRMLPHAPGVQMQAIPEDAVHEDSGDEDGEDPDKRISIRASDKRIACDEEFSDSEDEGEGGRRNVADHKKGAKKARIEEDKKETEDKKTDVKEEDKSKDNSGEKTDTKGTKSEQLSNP
Histone deacetylase 1, sequence (Q13547 whole entry): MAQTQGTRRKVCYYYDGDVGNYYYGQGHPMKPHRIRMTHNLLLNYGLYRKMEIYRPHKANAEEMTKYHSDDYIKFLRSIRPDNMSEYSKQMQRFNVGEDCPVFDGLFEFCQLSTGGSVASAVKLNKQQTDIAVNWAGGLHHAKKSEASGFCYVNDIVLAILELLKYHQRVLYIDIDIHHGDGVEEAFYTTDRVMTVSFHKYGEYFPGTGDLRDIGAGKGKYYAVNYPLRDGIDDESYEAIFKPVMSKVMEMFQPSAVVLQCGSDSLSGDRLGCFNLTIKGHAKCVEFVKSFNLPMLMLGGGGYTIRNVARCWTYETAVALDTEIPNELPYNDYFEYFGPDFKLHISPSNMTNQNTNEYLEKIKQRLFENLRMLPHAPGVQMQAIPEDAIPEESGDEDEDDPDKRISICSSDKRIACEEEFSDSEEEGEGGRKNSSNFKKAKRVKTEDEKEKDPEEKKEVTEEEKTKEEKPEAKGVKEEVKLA

For `C/C=C1\NC(=O)c2csc(n2)[C@@H](C(C)C)NC(=O)C[C@@H](/C=C/CCSC(=O)CCCCCCC)OC(=O)[C@H](C(C)C)NC1=O`, the half-inhibitory concentration (IC50) in data set [1] was over 10000 nM; at Histone deacetylase 1, 165 nM; on Histone deacetylase 2, 2740 nM; in data set [3], 395 nM; on Histone deacetylase 7, over 10000 nM. The concentration for 50% growth inhibition (GI50) in data set [2] was 22 nM. For the same compound, the 50% growth inhibitory concentration (GI50) at 72 h in data set [4] is 561 nM.
`C/C=C1\NC(=O)c2csc(n2)CNC(=O)C[C@@H](/C=C/CCSC(=O)CCCCCCC)OC(=O)[C@H](C(C)C)NC1=O`: the IC50 was 6950 nM in data set [1]; 158 nM at Histone deacetylase 1; 2710 nM at Histone deacetylase 2; 1930 nM in data set [3]; over 10000 nM at Histone deacetylase 7. Moreover, in data set [2], growth was halved (GI50) at 5.87 nM. Further, the GI50 at 72 h in data set [4] turned out to be 157 nM.
In the case of `C/C=C1\NC(=O)c2csc(n2)[C@@H](C(C)C)NC(=O)C[C@@H](/C=C/CCS)OC(=O)[C@H](C(C)C)NC1=O`, the half-maximal inhibitory concentration (IC50) in data set [1] was 459 nM; at Histone deacetylase 1, 2.18 nM; at Histone deacetylase 2, 36.6 nM; in data set [3] it was 138 nM; on Histone deacetylase 7 it was over 10000 nM.
Regarding `C/C=C1\NC(=O)c2csc(n2)CNC(=O)C[C@@H](/C=C/CCS)OC(=O)[C@H](C(C)C)NC1=O`, the 50% inhibitory concentration (IC50) is 331 nM in data set [1]; 2.78 nM at Histone deacetylase 1; 45 nM on Histone deacetylase 2; 37.4 nM in data set [3]; over 10000 nM on Histone deacetylase 7.
For the compound `C/C=C1\NC(=O)c2csc(n2)CNC(=O)C[C@@H](/C=C/CCSC(C)=O)OC(=O)[C@H](C(C)C)NC1=O`, the 50% inhibitory concentration (IC50) in data set [1] was 4630 nM; on Histone deacetylase 1, 21.6 nM; at Histone deacetylase 2 it was 328 nM; in data set [3], 751 nM; at Histone deacetylase 7, over 10000 nM. In data set [2], this compound had a GI50 of 7.22 nM. Besides, in data set [4], it took 258 nM to inhibit growth by half (GI50 at 72 h).
